Data from a melting point compilation (Tetko et al.; mined from patent text by program, amines drawn as free bases though some values may be those of a salt).

Compound | melting point [°C]
COc1ccc(CCNc2nc(C)c(CCO)c(=O)n2C)cc1 | 210
CCN(CC)C(=O)c1ccc(C)c(-c2nc(NC3CCN(C)CC3)nc3c2CNC(=O)N3c2c(F)cccc2F)c1 | 165 to 169
CCCC12CSC(SC1)SC2 | 139
CCCCCCc1ccc(CCCCC(COC(C)=O)(COC(C)=O)NC(C)=O)cc1 | 61 to 64
CC1(c2ccc(COc3ncc(Br)s3)cc2)OCCO1 | 129 to 131
CCOC(=O)Cc1nc2cc(OC)c(OC)cc2c(-c2ccc(OC)c(OC)c2)c1C(=O)OCC | 146 to 147
CCOc1c(C)c(N2CCN(c3ccc(F)cc3)CC2)c(C)c2c1OC(C)(C)C2 | 163 to 165
CCOC(C[C@@H](CO)Cn1cnc2c(Cl)nc(N)nc21)OCC | 156 to 158
Cc1cc(OCC2CO2)c(N)c([N+](=O)[O-])c1 (stereo unspecified) | 90 to 91
CC1=C(c2ccc(O)cc2)CCC(=O)N1 | 197 to 200
O=C1C(Cl)=C(Cl)C(=O)c2ncccc21 | 221 to 222
CCOC(=O)c1c(C)[nH]c(Sc2cc(Cl)cc(Cl)c2)c1C(C)C | 148 to 151
CN(C)C1=NC(=O)C(Cc2cccc(-c3ccc(O)c(C45CC6CC(CC(C6)C4)C5)c3)c2)S1 (stereo unspecified) | 243 to 246
CCCc1cc(C(=O)NC(C)(C)C)no1 | 34 to 37
CCCn1c(=O)c(C#N)c(N2CCN(C(=O)c3cccs3)CC2)c2cccnc21 | 196
N#Cc1cc(Br)ccc1NC(=O)c1cccc(S(=O)(=O)N2CCOCC2)c1 | 185 to 187
CCCc1cc2cc(NC(=O)OCC)ccc2o1 | 69 to 70
Cc1ccc(S(=O)(=O)N2CCCC2c2ccco2)cc1 (racemic) | 58
Cc1cccc(CC2CNC(=O)O2)c1 (stereo unspecified) | 89 to 90.5
O=C1CCC(N2C(=O)c3cccc(NCc4ccco4)c3C2=O)C(=O)N1 (stereo unspecified) | 171 to 173
Cc1nc[nH]c1CSCCNC1=NC(=O)C(Cc2ccccc2)N1 (stereo unspecified) | 104 to 107
CCOC(=O)C1=C(COCCCN(C)C)NC(C)=C(C(=O)OC)C1c1ccccc1Cl (stereo unspecified) | 77 to 78
CCOC(=O)C1(CC(N)=O)C(=O)N(Cc2ccc(Br)cc2F)C(=O)c2cccn21 (stereo unspecified) | 190 to 192
CCOC(=O)c1c(CN(CC)CC)nc2sc3c(c2c1-c1ccc(OC)c(OC)c1)CCNC3 | 72 to 75
CS(=O)(=O)c1ccc(Br)cc1C(F)(F)F | 110 to 112
CCOC(=O)C1=C(C(F)(F)F)Nc2n[nH]cc2C1c1ccc(Cl)cc1 (stereo unspecified) | 176 to 178
CC(C)(C)C(=O)Nc1c[nH]nc1C(=O)NCCC#N | 165 to 166

Compound | melting point [°C]
Cn1c(=O)c2c(-c3nc(C4CC4)no3)ncn2c2ccccc21 | 184 to 190
CC(=O)OCC(C)C1=CCC2C3CC=C4CC(OC(C)=O)CC(OC(C)=O)C4(C)C3CCC12C (stereo unspecified) | 116 to 118
CCOC(=O)c1ccc(N2CCCC2=O)cc1 | 94 to 95
CC(C)c1ccc2c(c1)C=C(/C=C/C=C/C=C/C(=O)O)CO2 | 244 to 246
CC(=O)OCC1OC(SCC=Cc2ccccc2)C(OC(C)=O)C(OC(C)=O)C1OC(C)=O (stereo unspecified) | 113 to 114
CCOCc1nc2c(N)nc3cc(N4CCOC4=O)cnc3c2n1CC(C)C | 174 to 176
CCC1(CC)Cc2c(C(=O)O)ccc(OC)c2O1 | 152 to 154
Cc1ccc2nc(NC(=O)c3ccc(C(C)(C)CCC(=O)O)cc3)cn2c1 | 280 to 282
CCCCCOC(=O)n1c(N)nc(C#N)c1C#N | 166 to 169
Clc1cn2ccnc2c(Br)n1 | 146 to 147
C=CCn1c(Nc2cc(C(F)(F)F)ccc2C(F)(F)F)nc(C(F)(F)F)cc1=O | 116 to 118
CNc1nc(SC)nc(N(C)C)c1[N+](=O)[O-] | 128 to 132
COc1nc2c(Cl)c(Cl)c(Cl)c(Cl)c2n1COCCO | 139
CC(Oc1ccc(Cl)cc1)(C(=O)O)C(F)(F)F (stereo unspecified) | 141 to 142
CCc1nc(OC)c(NC(=O)N2CCN(c3cc(C)cc(C)c3)CC2)cc1C | 135 to 136
CCOC(=O)C(=NO)c1csc(C)n1 | 90 to 92
NC1=NN(c2ccccn2)CC1 | 168 to 170
COCCN(CCOC)C(=O)c1n[nH]c2c(=O)[nH]c3cc(Cl)ccc3c(=O)c12 | 207 to 209
Cc1cccc(C(=O)C=C2CCCN2C)c1 | 60 to 62
CCC1=NNC(C)=C(C(=O)NN)C1c1cccc([N+](=O)[O-])c1 (stereo unspecified) | 98
O=C1c2cc(Cl)ccc2Cc2cccc(Cl)c21 | 160 to 165
CC(O)c1ccc(C2=CCCCC2)cc1 (stereo unspecified) | 60 to 62
CCCN(C(C)=O)c1cccc(-c2ccc3nnc(C)n3n2)c1 | 145 to 149
CNC(=O)c1cc2nc(C)c(C)nc2c(Cl)c1NC(=O)c1cc(C(F)(F)F)nn1-c1ncccc1Cl | 221 to 224
COC(=O)CCCC(Cl)C1SCC2NC(=O)N(Cc3ccccc3)C21 (stereo unspecified) | 141 to 142
NS(=O)(=O)c1ccc(C(=O)NCCCN2CCOCC2)cc1 | 196 to 198

Next, values leading:

melting point [°C] | Compound
167 to 169 | CCCNC(=O)Nc1ccccc1Nc1ccc(C(=O)c2ccccc2)cc1
242 to 244 | CCc1cn(C2CC(O)C(CNC(=O)c3ccc4ccccc4c3)O2)c(=O)[nH]c1=O (stereo unspecified)
208 to 209 | COC(=O)c1ccc(-c2coc3ccc(-c4nnc(C)o4)cc23)cc1
114 to 115 | Cc1cc(C(=O)CC(O)(c2cc(Cl)cc(Cl)c2)C(F)(F)F)ccc1C(=O)O (stereo unspecified)
78 to 80 | O=C(OC1C(OCCBr)OC(COCc2ccccc2)C(O)C1OC(=O)c1ccccc1)c1ccccc1 (stereo unspecified)
289 to 290 | O=C(Oc1ccccc1)c1cc2ccc3c4cc(F)ccc4[nH]c3c2cc1O
132 to 133 | CC(C)CCSc1cc(C(=O)O)cc(N)c1Oc1ccccc1
95 to 96 | COC(=O)/C(=C/c1ccc(OCc2ccccc2)c([N+](=O)[O-])c1)N=[N+]=[N-]
228 to 230 | CC(C)(CC(=O)Nc1ccc2oc(-c3ccc4ccc(Cl)cc4n3)cc2c1)C(=O)O
160 to 162 | Cn1c(=O)ccc2cnc(NCc3ccccc3)nc21
210 | CCCC(=O)Nc1n[nH]c2cc(-c3ccc(OC)cc3)ccc12
68 to 70 | NC(c1ccccc1)c1nc2ccccc2s1 (stereo unspecified)
134 to 135 | Cc1nc(-c2cccc(C(F)(F)F)c2)oc1COc1ccc(CCC(=O)O)cc1
256 to 258 | COc1cc(-c2cccs2)cc(OC)c1/C=C/C(=O)c1ccc(C(=O)O)cc1
165 to 168 | O=C(NCc1ccccc1)N1C(=O)[C@H](O)[C@@H]1c1ccccc1
274 to 276 | COc1cc(Nc2cc(-c3ccc(F)cc3)nc3ccccc23)ccc1Cl
141 to 146 | CN1CC23CC(c4ccccc4C2C1=O)c1ccccc13 (stereo unspecified)
106 to 107 | Cc1ccc(C2OC(CO)C(O)C(O)C2O)cc1Cc1ccc(-c2ccc(F)cc2)s1 (stereo unspecified)
218 to 220 | COc1ccc(Nc2ncc3cc(-c4c(Cl)cccc4Cl)c(=O)n(C)c3n2)cc1C
103 to 104 | CC[C@H]1c2cc(F)ccc2-c2ccccc2N1C(=O)c1ccc(O)cc1
86 to 89 | CCOC(=O)c1cnn(-c2ccccc2)c1Br
151 to 153 | CC(C)(C)OC(=O)NCCCn1c(CCCOc2ccccc2)nc2c(N)nc3ccccc3c21
114 to 115 | CCCc1ccc(OCCN(C(=O)n2cccn2)c2ncnc3ccccc23)c(C)c1
176 to 178 | COc1ccc(NC(=S)N2CCn3c(c(C(N)=O)c(Cl)c3-c3ccccc3)C2)cc1

melting point [°C] | Compound
230 | C#CCOc1ccc2c(C(=O)OCC)cc(=O)oc2c1
100 to 102 | O=C(Oc1ccnc(OC(=O)c2ccccc2)c1)c1ccccc1
92 | COc1ccc(C(=O)N2CCCC2=O)cc1OCc1ccccc1
104 to 105 | COc1cc(CCCC2SC(=O)NC2=O)ccc1OCc1csc(CCc2ccccc2)n1 (stereo unspecified)
138 | Cc1ncc(C(=O)NCc2cc(C(F)(F)F)cc(C(F)(F)F)c2)c(-c2ccccc2Br)n1
75 to 79 | CC(C)Oc1ccccc1OCCCN1CCC(C(O)(c2ccc(F)cc2)c2ccc(F)cc2)CC1
64 | CCCc1ccc(-c2cc(F)c(-c3ccc(CCC)s3)c(F)c2)cc1
221 to 223 | O=C(Nc1ccc(C(=O)N2CC(C(=O)O)Cc3ccccc32)cc1)c1cc(Cl)cc(Cl)c1 (stereo unspecified)
158 to 160 | Cn1nc(NC(=O)Cc2ccccc2)c(-c2ccncc2)c1-c1ccc(F)cc1
194 to 196 | COC(=O)c1sc2cncc(Oc3ccc(Cl)cc3)c2c1N
207 to 210 | O=C(COc1ccc(C(=O)C=CC(=O)N2CCCCC2)c(O)c1)Nc1nc2ccccc2s1
> 240 | C(=Cc1c[nH]cn1)CC(c1ccccc1)c1ccccc1
220 to 224 | NC(=O)c1cccc(OC2C(C(=O)O)=CC=CN2Cc2ccccc2Cl)c1 (stereo unspecified)
117 to 122 | c1ccc2c(c1)CNc1ccccc1C2
50 to 52 | COC(=O)C(C)c1cccc(C(=O)c2ccccc2)c1 (stereo unspecified)
110 to 111 | O=C(Cc1ccccc1F)N1C(=O)OC[C@H]1c1ccccc1
125 to 127 | CCCc1cc(-c2noc3cc(O)ccc23)c(CC)cc1O
138 to 139 | O=C(O)CCc1oc(/C=C/c2ccccc2)nc1-c1ccccc1
136 to 137 | COC(=O)COc1ccc(-c2ccc[nH]2)cc1
155 to 163 | O=C(O)c1cccc(Cc2c(-c3ccc(OC(F)F)c(OC4CC4)c3)[nH]c3cn[nH]c(=O)c23)c1
268 to 269 | O=C(O)c1cc([N+](=O)[O-])cc2ccc(-c3ccccc3)nc12
147 to 149 | CN1CCN(c2cc(Cl)cc3c2c(=O)n(Cc2ccccc2F)c(=O)n3Cc2ccccc2)CC1
97 | CCc1ccc(CCc2ccc(-c3ccc(OC(F)(F)F)cc3)cc2)cc1
192 to 193 | COc1ccc(C(=O)Nc2ccccc2)cc1NC(=S)Nc1cc(C(F)(F)F)cc(C(F)(F)F)c1
